# Values quoted from earlier work as cited in PMC1976805, “Preclinical pharmacokinetics of benznidazole” (British Journal of Cancer, 1984).
# Where two headings read alike, the source gives them in different places.
# Tests used:
# [1] = spontaneous dog neoplasms; ref Workman, 1980b and 1983; cited from earlier work
# [2] = sheep; ref Miller, personal communication; cited from earlier work
# [3] = humans; ref Workman, 1980b and 1983; cited from earlier work
# [4] = mice; ref Workman, 1980b and 1983; cited from earlier work
# [5] = mice; ref Workman, 1980b and 1983; cited from earlier work; remark: listed apart in the source
# [6] = EMT6 flank tumours; ref Workman, 1980b and 1983; cited from earlier work
# [7] = large crossbred dogs; ref Workman, 1980b and 1983; cited from earlier work
# [8] = ref Workman, 1980b and 1983, cited from earlier work
# plasma proteins = settings: ref Workman, 1980b and 1983; cited from earlier work
compound,measurement,setting,value
"COCC(O)Cn1ccnc1[N+](=O)[O-] (centres unmarked) [MISO, 1-(2-nitro-imidazol-1-yl)-3-methoxypropan-2-ol]",tissue/whole plasma ratio,[1],61%
same,elimination t1/2,[2],0.667 to 1 h
same,usual average t1/2,[3],10 to 12 h
same,brain/whole plasma ratio,[4],90%
same,elimination t1/2,[5],0.333 to 0.667 h
same,overall tissue/whole plasma ratio,[6],87%
same,steady-state tumour/whole plasma ratio (about),[6],about 90%
same,elimination t1/2,[7],4 to 5 h
same,peripheral nerve/whole plasma ratio,[8]; dog,82%
same,brain/whole plasma ratio,[8]; dogs,70%
same,appreciable plasma protein binding,plasma proteins,does not occur
